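Tested at 5 concentrations; 48 h exposure; 96-well plates; endpoints linearly interpolated, else capped at highest concentration. At the TGI there is no net growth.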
Assays:
Assay in all cases: growth of human tumour cells (NCI), 48 h
MDA-MB-435 = tested on: MDA-MB-435
M14 melanoma = tested on: M14 melanoma
OVCAR-8 ovarian = tested on: OVCAR-8 ovarian
SW-620 colon = tested on: SW-620 colon
SF-268 CNS = tested on: SF-268 CNS
RPMI-8226 leukemia = tested on: RPMI-8226 leukemia
NCI-H522 lung = tested on: NCI-H522 lung
SK-MEL-28 melanoma = tested on: SK-MEL-28 melanoma
NCI/ADR-RES ovarian = tested on: NCI/ADR-RES ovarian
RXF 393 renal = tested on: RXF 393 renal
ACHN renal = tested on: ACHN renal
SNB-19 CNS = tested on: SNB-19 CNS
PC-3 prostate = tested on: PC-3 prostate
HT29 colon = tested on: HT29 colon
786-0 renal = tested on: 786-0 renal
CAKI-1 renal = tested on: CAKI-1 renal
MDA-MB-231 breast = tested on: MDA-MB-231 breast
NCI-H460 lung = tested on: NCI-H460 lung
HCT-116 colon = tested on: HCT-116 colon
SK-MEL-2 melanoma = tested on: SK-MEL-2 melanoma
HCC-2998 colon = tested on: HCC-2998 colon
UO-31 renal = tested on: UO-31 renal
NCI-H23 lung = tested on: NCI-H23 lung
HOP-92 NSCLC = tested on: HOP-92 NSCLC
TK-10 renal = tested on: TK-10 renal
SF-539 CNS = tested on: SF-539 CNS
CCRF-CEM leukemia = tested on: CCRF-CEM leukemia
A498 renal = tested on: A498 renal
DU-145 prostate = tested on: DU-145 prostate
UACC-257 melanoma = tested on: UACC-257 melanoma
U251 CNS = tested on: U251 CNS
SN12C renal = tested on: SN12C renal
KM12 colon = tested on: KM12 colon
SK-OV-3 ovarian = tested on: SK-OV-3 ovarian
LOX IMVI melanoma = tested on: LOX IMVI melanoma
MOLT-4 leukemia = tested on: MOLT-4 leukemia
OVCAR-4 ovarian = tested on: OVCAR-4 ovarian
K-562 leukemia = tested on: K-562 leukemia
SR leukemia = tested on: SR leukemia
HCT-15 colon = tested on: HCT-15 colon
SK-MEL-5 melanoma = tested on: SK-MEL-5 melanoma
OVCAR-5 ovarian = tested on: OVCAR-5 ovarian
SF-295 CNS = tested on: SF-295 CNS
MCF7 breast = tested on: MCF7 breast
UACC-62 melanoma = tested on: UACC-62 melanoma
A549 NSCLC = tested on: A549 NSCLC
COLO 205 colon = tested on: COLO 205 colon
NCI-H226 lung = tested on: NCI-H226 lung
MDA-N = tested on: MDA-N
T-47D breast = tested on: T-47D breast
SNB-75 CNS = tested on: SNB-75 CNS
HL-60(TB) leukemia = tested on: HL-60(TB) leukemia
EKVX NSCLC = tested on: EKVX NSCLC
HOP-62 NSCLC = tested on: HOP-62 NSCLC
HS 578T breast = tested on: HS 578T breast
IGROV1 ovarian = tested on: IGROV1 ovarian

Measured: TGI

CC1=CCC2CC1NC(=O)CCOCCC(=O)NC2(C)C (stereo not drawn)
not listed: T-47D breast | SNB-75 CNS | HL-60(TB) leukemia | EKVX NSCLC | HOP-62 NSCLC | HS 578T breast | IGROV1 ovarian
> 100 µM: all other assays above

CC(=O)Nc1ccc(Sc2nnc(NC(C)=O)s2)cc1
not listed: RXF 393 renal | HT29 colon | 786-0 renal | CAKI-1 renal | SK-MEL-2 melanoma | NCI-H23 lung | HOP-92 NSCLC | A498 renal | DU-145 prostate | LOX IMVI melanoma | UACC-62 melanoma | NCI-H226 lung
> 100 µM: all other assays above

— PubChem BioAssay (NCI)
